From patent US20230190779A1, “Agent for Improving Symptoms of Menopause” (Kao Corporation, priority 2020, published 2023)

Biological target: T1, human TRPV4 (Homo sapiens, UniProt Q9HBA0)
T1 construct: expressed in transfected cells; host or cells: HeLa cells (human cervical cancer-derived, ATCC), transient transfection
Experiment: Suppression of TRPV4 activity: intracellular calcium ion influx in human TRPV4 expression HeLa cells stimulated with GSK1016790a
Assay type: cell-based
Conditions: GSK + solvent = 100%, n = 3, Mean ± SE
Method: Using a primer set consisting of oligonucleotides represented by the base sequences described below which was synthesized with reference to the published human TRPV4 gene sequence using cDNA obtained by reverse transcribing the total RNA extracted from human duodenum-derived cells (Hutu-80 cells, purchased from American Type Culture Collection) as a template, the polymerase chain reaction (PCR) was carried out under the following conditions.
The obtained PCR product was purified using a High Pure PCR Product Purification Kit (manufactured by Roche). Using the purified PCR product and pcDNA3.1 Directional TOPO Expression Kit (manufactured by Invitrogen), a human TRPV4 gene expression vector was produced.
A human cervical cancer-derived cell line (HeLa cells, purchased from American Type Culture Collection) was cultured using a DMEM/F12 medium containing 10% fetal bovine serum (manufactured by Invitrogen). HeLa cells were seeded in a 10 cm cell culture dish at 2×10^5 cells/dish. After culturing for 2 days, the cells were transfected with the human TRPV4 gene expression vector (7.7 lag) produced in the above (1) using TransIT-HeLaMONSTER Transfection Kit (manufactured by Mirus) and cultured for 1 day.
The cells were detached using Detachin (manufactured. by Genlantis Inc.), seeded in a DMEM/F12 medium containing 10% fetal bovine serum on a 96 well Optical bottom plate (manufactured by Nunc A/S) at a cell density of 2.0×10^4 cells/90 μL/well, and further cultured for 1 day.
Measurement of the intracellular calcium ion influx activity was carried out using Calcium Kit II-fluo 4 (trade name, DOJTNDO). 90 μL/well of a loading buffer containing Fluo4-AM was added to the human TRPV4 expression cells produced in the above (2), and incubated at 37° C. for 1 hour. Thereafter, the fluorescence intensity (excitation wavelength: 488 nm, fluorescence wavelength: 524 nm) was measured at 37° C. every two seconds using a fluorescence plate reader (FDSS/μCFLL Functional Drug Screening System C13299, manufactured by Hamamatsu Photonics K. K.). After 30 seconds from the start of the measurement, each of GSK1016790a (manufactured by Sigma) which is the TRPV4 agonist, and the cassis extract, or D3R, C3R, D3G, or C3G prepared in the above Production Example as the sample was diluted with a dilution buffer of the measurement kit, 20 μL/well of a mixed solution thereof (mixed immediately before addition) was added, and the change of fluorescence intensity was measured every two seconds until 300 seconds. […]
The TRPV4 activity of the sample was calculated by the following equation assuming that the calcium ion influx rate by the treatment of GSK1016790a which is the TRPV4 agonist was 100%. […]

T1 sequence (Q9HBA0 whole entry): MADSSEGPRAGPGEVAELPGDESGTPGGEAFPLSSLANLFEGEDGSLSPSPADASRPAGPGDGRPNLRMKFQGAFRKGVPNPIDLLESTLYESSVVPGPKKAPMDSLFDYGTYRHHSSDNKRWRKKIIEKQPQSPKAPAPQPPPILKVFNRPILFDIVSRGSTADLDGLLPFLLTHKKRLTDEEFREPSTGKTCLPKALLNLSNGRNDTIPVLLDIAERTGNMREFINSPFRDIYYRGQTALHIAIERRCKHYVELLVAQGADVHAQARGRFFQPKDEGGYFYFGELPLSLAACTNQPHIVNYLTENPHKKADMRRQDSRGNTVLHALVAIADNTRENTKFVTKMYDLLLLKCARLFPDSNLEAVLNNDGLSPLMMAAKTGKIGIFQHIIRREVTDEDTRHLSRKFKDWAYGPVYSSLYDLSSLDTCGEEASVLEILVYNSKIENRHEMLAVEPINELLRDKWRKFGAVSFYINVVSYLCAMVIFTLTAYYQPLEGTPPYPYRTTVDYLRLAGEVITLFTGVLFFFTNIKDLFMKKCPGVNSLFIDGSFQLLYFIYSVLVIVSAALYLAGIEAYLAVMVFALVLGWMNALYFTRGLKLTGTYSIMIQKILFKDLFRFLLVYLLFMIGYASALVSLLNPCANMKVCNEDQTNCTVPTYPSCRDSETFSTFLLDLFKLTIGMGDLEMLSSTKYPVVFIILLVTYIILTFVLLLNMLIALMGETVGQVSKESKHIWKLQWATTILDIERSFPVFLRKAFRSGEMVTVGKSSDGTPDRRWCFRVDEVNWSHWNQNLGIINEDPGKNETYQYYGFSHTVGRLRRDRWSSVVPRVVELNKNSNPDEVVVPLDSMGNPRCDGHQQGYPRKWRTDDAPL

Structure (SMILES) | Intracellular Ca^2+ increase rate (%) (sample 0.14 μg/mL + GSK 10 nM) | Intracellular Ca^2+ increase rate (%) (sample 1.4 μg/mL + GSK 10 nM) | Intracellular Ca^2+ increase rate (%) (sample 0.05 μg/mL + GSK 10 nM) | Intracellular Ca^2+ increase rate (%) (sample 0.5 μg/mL + GSK 10 nM)
OC[C@H]1O[C@@H](Oc2cc3c(O)cc(O)cc3[o+]c2-c2cc(O)c(O)c(O)c2)[C@H](O)[C@@H](O)[C@@H]1O [D3G, delphinidin-3-glucoside, reference compound] | 101.4 ± 2.7% | 100.4 ± 3.2% | – | –
OC[C@H]1O[C@@H](Oc2cc3c(O)cc(O)cc3[o+]c2-c2ccc(O)c(O)c2)[C@H](O)[C@@H](O)[C@@H]1O [C3G, cyanidin-3-glucoside, reference compound] | – | – | 94.4 ± 3.1% | 101.5 ± 4.1%
